± gives the expanded uncertainty stated by the source.
How the values were obtained:
[1] = xn = mol fraction of the nth substance listed; conditions: 101 kPa, Liquid; for viscosity: Capillary tube (Ostwald / Ubbelohde) method; for mass density: Vibrating tube method
[2] = 101 kPa, Liquid; for viscosity: Capillary tube (Ostwald / Ubbelohde) method; for mass density: Vibrating tube method

SMILES | viscosity ([2]; 298.15 K) | mass density ([2]; 298.15 K) | viscosity ([2]; 303.15 K) | mass density ([2]; 303.15 K) | viscosity ([2]; 308.15 K) | mass density ([2]; 308.15 K) | viscosity ([2]; 313.15 K) | mass density ([2]; 313.15 K) | also measured
CC(C)O [propan-2-ol] + CCC(C)=O |  |  |  |  |  |  |  |  | viscosity ([1]; 298.15 K, x2 = 0): 2.055 ± 0.016 mPa·s; mass density ([1]; 298.15 K, x2 = 0): 781.09 ± 0.24 kg/m3; viscosity ([1]; 303.15 K, x2 = 0): 1.788 ± 0.014 mPa·s; mass density ([1]; 303.15 K, x2 = 0): 776.77 ± 0.24 kg/m3; viscosity ([1]; 308.15 K, x2 = 0): 1.563 ± 0.012 mPa·s; mass density ([1]; 308.15 K, x2 = 0): 771.87 ± 0.24 kg/m3; viscosity ([1]; 313.15 K, x2 = 0): 1.379 ± 0.011 mPa·s; mass density ([1]; 313.15 K, x2 = 0): 767.37 ± 0.24 kg/m3
CCC(C)=O [butanone] + CCCCCC(C)O |  |  |  |  |  |  |  |  | viscosity ([1]; 298.15 K, x1 = 1): 0.381 ± 0.004 mPa·s; mass density ([1]; 298.15 K, x1 = 1): 799.48 ± 0.24 kg/m3; viscosity ([1]; 303.15 K, x1 = 1): 0.368 ± 0.004 mPa·s; mass density ([1]; 303.15 K, x1 = 1): 794.63 ± 0.24 kg/m3; viscosity ([1]; 308.15 K, x1 = 1): 0.352 ± 0.004 mPa·s; mass density ([1]; 308.15 K, x1 = 1): 789.9 ± 0.24 kg/m3; viscosity ([1]; 313.15 K, x1 = 1): 0.339 ± 0.004 mPa·s; mass density ([1]; 313.15 K, x1 = 1): 785.52 ± 0.24 kg/m3
CCC(C)O (stereo not drawn) [butan-2-ol] + CCC(C)=O |  |  |  |  |  |  |  |  | viscosity ([1]; 298.15 K, x2 = 0): 3.105 ± 0.023 mPa·s; mass density ([1]; 298.15 K, x2 = 0): 802.7 ± 0.24 kg/m3; viscosity ([1]; 303.15 K, x2 = 0): 2.597 ± 0.02 mPa·s; mass density ([1]; 303.15 K, x2 = 0): 798.3 ± 0.24 kg/m3; viscosity ([1]; 308.15 K, x2 = 0): 2.153 ± 0.016 mPa·s; mass density ([1]; 308.15 K, x2 = 0): 793.57 ± 0.24 kg/m3; viscosity ([1]; 313.15 K, x2 = 0): 1.734 ± 0.013 mPa·s; mass density ([1]; 313.15 K, x2 = 0): 789.15 ± 0.24 kg/m3
CC(C)O [propan-2-ol] | 2.055 ± 0.016 mPa·s | 781.09 ± 0.24 kg/m3 | 1.788 ± 0.014 mPa·s | 776.77 ± 0.24 kg/m3 | 1.563 ± 0.012 mPa·s | 771.87 ± 0.24 kg/m3 | 1.379 ± 0.011 mPa·s | 767.37 ± 0.24 kg/m3 | 
CCC(C)O (stereo not drawn) [butan-2-ol] | 3.105 ± 0.023 mPa·s | 802.7 ± 0.24 kg/m3 | 2.597 ± 0.02 mPa·s | 798.3 ± 0.24 kg/m3 | 2.153 ± 0.016 mPa·s | 793.57 ± 0.24 kg/m3 | 1.734 ± 0.013 mPa·s | 789.15 ± 0.24 kg/m3 | 
CCC(C)=O [butanone] + CCCC(C)O |  |  |  |  |  |  |  |  | viscosity ([1]; 298.15 K, x1 = 1): 0.381 ± 0.004 mPa·s; mass density ([1]; 298.15 K, x1 = 1): 799.48 ± 0.24 kg/m3; viscosity ([1]; 303.15 K, x1 = 1): 0.368 ± 0.004 mPa·s; mass density ([1]; 303.15 K, x1 = 1): 794.63 ± 0.24 kg/m3; viscosity ([1]; 308.15 K, x1 = 1): 0.352 ± 0.004 mPa·s; mass density ([1]; 308.15 K, x1 = 1): 789.9 ± 0.24 kg/m3; viscosity ([1]; 313.15 K, x1 = 1): 0.339 ± 0.004 mPa·s; mass density ([1]; 313.15 K, x1 = 1): 785.52 ± 0.24 kg/m3
CCCCC(C)O (stereo not drawn) [2-hexanol] | 4.101 ± 0.031 mPa·s | 810.14 ± 0.24 kg/m3 | 3.411 ± 0.026 mPa·s | 806.13 ± 0.24 kg/m3 | 2.819 ± 0.021 mPa·s | 802.06 ± 0.24 kg/m3 | 2.219 ± 0.017 mPa·s | 797.96 ± 0.24 kg/m3 | 
CCCCCC(C)O (stereo not drawn) [2-heptanol] | 5.003 ± 0.037 mPa·s | 813.18 ± 0.24 kg/m3 | 4.152 ± 0.031 mPa·s | 809.26 ± 0.24 kg/m3 | 3.478 ± 0.026 mPa·s | 805.01 ± 0.24 kg/m3 | 2.853 ± 0.022 mPa·s | 801.14 ± 0.24 kg/m3 | 
CCCC(C)O (stereo not drawn) [pentan-2-ol] | 3.478 ± 0.026 mPa·s | 805.41 ± 0.24 kg/m3 | 2.801 ± 0.021 mPa·s | 801.21 ± 0.24 kg/m3 | 2.335 ± 0.018 mPa·s | 796.64 ± 0.24 kg/m3 | 1.993 ± 0.015 mPa·s | 792.51 ± 0.24 kg/m3 | 
CCC(C)=O [butanone] + CCCCC(C)O |  |  |  |  |  |  |  |  | viscosity ([1]; 298.15 K, x1 = 1): 0.381 ± 0.004 mPa·s; mass density ([1]; 298.15 K, x1 = 1): 799.48 ± 0.24 kg/m3; viscosity ([1]; 303.15 K, x1 = 1): 0.368 ± 0.004 mPa·s; mass density ([1]; 303.15 K, x1 = 1): 794.63 ± 0.24 kg/m3; viscosity ([1]; 308.15 K, x1 = 1): 0.352 ± 0.004 mPa·s; mass density ([1]; 308.15 K, x1 = 1): 789.9 ± 0.24 kg/m3; viscosity ([1]; 313.15 K, x1 = 1): 0.339 ± 0.004 mPa·s; mass density ([1]; 313.15 K, x1 = 1): 785.52 ± 0.24 kg/m3
CCC(C)=O [butanone] | 0.381 ± 0.004 mPa·s | 799.48 ± 0.24 kg/m3 | 0.368 ± 0.004 mPa·s | 794.63 ± 0.24 kg/m3 | 0.352 ± 0.004 mPa·s | 789.9 ± 0.24 kg/m3 | 0.339 ± 0.004 mPa·s | 785.52 ± 0.24 kg/m3 | 
